Where two headings read alike, the source gives them in different places.
Experiments:
CMPK1 = target: T1, CMPK1 (Homo sapiens, UniProt P30085); assay: Inhibition of CMPK1 measured by the enzymatic coupling fluorescence method; assay type: biochemical; details: enzymatic coupling with 20 mM N-ethylmaleimide; matched HPLC method
T1 construct: purchased Prospec pKa-002-b
T1 sequence (P30085 1-196): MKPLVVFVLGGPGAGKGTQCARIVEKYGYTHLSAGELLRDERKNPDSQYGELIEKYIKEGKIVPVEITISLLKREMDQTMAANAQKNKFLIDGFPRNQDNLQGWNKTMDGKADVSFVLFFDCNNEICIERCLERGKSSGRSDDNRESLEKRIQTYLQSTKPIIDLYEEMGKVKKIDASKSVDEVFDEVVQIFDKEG
Protocol: Enzyme inhibitory activities of Ap5A (P^1,P^5-Di(adenosine-5′)pentaphosphate) in which inhibitory activities of dictyostelium (Dictyostelium discoideum) on CMP kinase have been reported (J. Biol. Chem, Vol. 265, No. 11, pp. 6339-6345, 1990) on CMPK1 were measured using a method of the present invention. A 0 to 3 mM Ap5A (1 μl) (catalog number D4022 commercially available from Sigma-Aldrich) solution and 50 μM CMP (2 μl) were added to a 384-well microplate, and 200 μM ATP (2 μi), 3 μg/ml CMPK1, and 4 mM DTT were added thereto (a buffer solution composition included 100 mM Tris-HCl (pH 9), 13.5 mM MgCl2, 150 mM KCl, and 0.1% TritonX-100). The result was covered with a plate seal and incubated for 1 hour at 37° C. Then, the result was cooled at room temperature, and the mixed solution for enzymatic coupling (5 μl) containing 20 mM N-ethylmaleimide was added and incubated for 60 minutes at 25° C. in darkness. Then, fluorescence was measured using a plate reader. A group containing no Ap5A was set as a control (an inhibition rate of 0%), a group containing no CMPK1 was set as a control (an inhibition rate of 100%), and inhibition rates of Ap5A of respective concentrations on CMPK1 were calculated.

[1] = test system: enzymatic coupling reaction; assay: Influence on enzymatic coupling itself (25 μM ADP instead of CMP); assay type: biochemical; details: 25 μM ADP instead of 50 μM CMP
Protocol: In addition, the same operations were performed using 25 μM ADP instead of 50 μM CMP, and an influence of Ap5A on enzymatic coupling itself was studied. In addition, some of the reaction solution after the kinase reaction of CMPK1 was used, an amount of produced CDP was measured by the HPLC analysis method described in Example 14, and an inhibitory activity was determined by an HPLC method.

human FUT7 [2] = target: T2, human FUT7 (Homo sapiens, UniProt Q11130); assay: Inhibition of FUT7 measured by the enzymatic coupling fluorescence method of the invention; assay type: biochemical; details: method of the present invention, FUT7 1 μg/ml; read-out: IC50 value, inhibitory activity on FUT7
T2 sequence (Q11130 1-342): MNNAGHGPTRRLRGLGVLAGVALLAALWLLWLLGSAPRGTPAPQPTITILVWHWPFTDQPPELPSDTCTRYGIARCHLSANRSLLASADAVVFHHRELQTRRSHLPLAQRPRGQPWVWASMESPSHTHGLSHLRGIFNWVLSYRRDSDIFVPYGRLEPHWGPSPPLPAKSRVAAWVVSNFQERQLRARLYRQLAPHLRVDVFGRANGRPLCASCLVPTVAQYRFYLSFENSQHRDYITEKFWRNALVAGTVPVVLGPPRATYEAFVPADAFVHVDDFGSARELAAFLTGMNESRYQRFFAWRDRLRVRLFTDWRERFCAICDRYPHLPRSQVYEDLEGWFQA
Protocol: 100 μM GDP-fucose (2.5 μl), 6 mg/ml fetuin, and 0 to 4 μg/ml FUT7 (2.5 μl) were added to a 384-well microplate (a buffer solution included 50 mM Tris-HCl (pH 7.5), 5 mM MgCl2, 10 mM MnCl2, and 0.1% Triton X-100), covered with a plate seal (catalog number 1-6774-01 commercially available from AS ONE corporation) and incubated for 1 hour at 37° C. After being cooled to room temperature, the mixed solution A for the first process (5 μl) was added to the result and incubated for 1 hour at 25° C. The mixed solution B for the second process (10 μl) was added to the result, and incubated for 30 minutes at 25° C. Fluorescence thereof was measured similarly to Example 1. A fluorescence value according to an enzyme concentration was confirmed.
When enzyme activities of FUT7 were measured using the method described in Example 4, an inhibitory effect of gallic acid on FUT7 was studied according to the same operations as in Example 4 except that a reaction of FUT7 (a concentration of 1 μg/ml in a transglucosylation solution) was caused in the presence of gallic acid. A group containing no gallic acid was set as a control (an inhibition rate of 0%), a group containing no FUT7 was set as a control (an inhibition rate of 100%), and inhibition rates of gallic acid of respective concentrations of FUT7 were calculated.

human FUT7 [3] = target: T2, human FUT7; assay: Inhibition of FUT7 measured by HPLC quantification of produced GDP; assay type: biochemical; details: FUT7 1 μg/ml, read-out: IC50 value, inhibitory activity on FUT7
Protocol: (§1) In addition, the same operations were performed using 50 μM GDP instead of 100 μM GDP-fucose, and an influence of enzymatic coupling itself on gallic acid was studied. In addition, an amount of GDP produced was quantified by HPLC analysis using some of the reaction solution after the FUT7 enzymatic reaction, and an inhibitory activity was determined by an HPLC method.
HPLC conditions were as follows: column: YMC-Triart C18 (commercially available from Ymc Corporation, particle size: 5 μm, and diameter: 4.6 mm×length: 150 mm), eluate: 50 mM KH2PO4—K2HPO4 (10:1), flow rate: 1 ml/min, and detection: UV 260 nm.

[4] = test system: enzymatic coupling reaction; assay: Influence on enzymatic coupling itself (50 μM GDP instead of GDP-fucose); assay type: biochemical; details: 50 μM GDP instead of 100 μM GDP-fucose
Protocol: as §1

human FUT7 [5] = target: T2, human FUT7; details: reported in Arch. Biochem. Biophys, Vol. 425, No. 1, pp. 51-57, 2004; cited from earlier work

inhibitory activity on CMPK1 (CMPK1)	SMILES	inhibition of the enzymatic coupling reaction itself [1]	IC50 (human FUT7 [2]) [µM]	IC50 (human FUT7 [3]) [µM]	inhibition of the enzymatic coupling reaction itself [4]	IC50 (human FUT7 [5]) [µM]
inhibition of CMPK1	Nc1ncnc2c1ncn2[C@@H]1O[C@H](COP(=O)(O)OP(=O)(O)OP(=O)(O)OP(=O)(O)OP(=O)(O)OC[C@H]2O[C@@H](n3cnc4c(N)ncnc43)[C@H](O)[C@@H]2O)[C@@H](O)[C@H]1O [Ap5A, P^1,P^5-Di(adenosine-5′)pentaphosphate]	did not inhibit the enzymatic coupling reaction itself at all				
	O=C(O)c1cc(O)c(O)c(O)c1 [gallic acid]		~10	~10	did not inhibit the enzymatic coupling reaction itself at all	5.4
